Data taken from patent US8618289B2 (Ambit Biosciences Corporation, priority 2008, dated 2013).
Like-named read-outs stand apart in the source and are kept apart here.

How the values were obtained:
RAF kinases [1] = target: T1, RAF kinases (Homo sapiens, UniProt P04049); conditions: read-out: RAF1 Kd; RAF1
RAF kinases [2] = target: T2, RAF kinases (Homo sapiens, UniProt P15056, V600E); conditions: read-out: BRAF V600E Kd; BRAF V600E
[3] = system: MEK1 phosphorylation in the A375 human melanoma cell line; assay: cells; conditions: A-375, read-out: pMEK IC50
RAF kinases [4] = target: RAF kinases (Homo sapiens, UniProt P15056); assay: biochemical
A375 cells = assay: cells; conditions: Homo sapiens, A-375, read-out: A375 Viability EC50
RAF kinases [5] = target: T1, RAF kinases; assay: biochemical
RAF kinases [6] = target: T2, RAF kinases; assay: biochemical

T2 sequence (P15056 whole entry V600E): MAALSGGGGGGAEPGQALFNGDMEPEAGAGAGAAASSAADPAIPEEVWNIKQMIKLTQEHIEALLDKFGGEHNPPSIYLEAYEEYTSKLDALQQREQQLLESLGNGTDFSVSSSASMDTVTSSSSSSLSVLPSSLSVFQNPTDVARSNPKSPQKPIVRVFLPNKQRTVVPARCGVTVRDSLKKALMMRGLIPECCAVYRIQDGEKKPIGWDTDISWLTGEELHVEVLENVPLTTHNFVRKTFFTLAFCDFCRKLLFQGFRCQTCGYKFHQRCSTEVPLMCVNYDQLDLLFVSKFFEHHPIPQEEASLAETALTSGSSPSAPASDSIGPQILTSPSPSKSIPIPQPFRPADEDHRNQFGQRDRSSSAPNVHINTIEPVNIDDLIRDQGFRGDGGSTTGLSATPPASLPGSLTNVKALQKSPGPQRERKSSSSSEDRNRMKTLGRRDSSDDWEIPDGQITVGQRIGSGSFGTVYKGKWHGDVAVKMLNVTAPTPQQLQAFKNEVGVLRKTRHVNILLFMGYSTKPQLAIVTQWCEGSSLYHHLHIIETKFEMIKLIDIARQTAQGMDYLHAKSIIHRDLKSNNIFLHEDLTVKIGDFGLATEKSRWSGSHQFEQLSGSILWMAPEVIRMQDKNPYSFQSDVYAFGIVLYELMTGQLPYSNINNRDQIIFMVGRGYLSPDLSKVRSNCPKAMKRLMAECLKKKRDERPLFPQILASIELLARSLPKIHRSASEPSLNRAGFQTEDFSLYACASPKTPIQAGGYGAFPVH
T1 sequence (P04049 whole entry): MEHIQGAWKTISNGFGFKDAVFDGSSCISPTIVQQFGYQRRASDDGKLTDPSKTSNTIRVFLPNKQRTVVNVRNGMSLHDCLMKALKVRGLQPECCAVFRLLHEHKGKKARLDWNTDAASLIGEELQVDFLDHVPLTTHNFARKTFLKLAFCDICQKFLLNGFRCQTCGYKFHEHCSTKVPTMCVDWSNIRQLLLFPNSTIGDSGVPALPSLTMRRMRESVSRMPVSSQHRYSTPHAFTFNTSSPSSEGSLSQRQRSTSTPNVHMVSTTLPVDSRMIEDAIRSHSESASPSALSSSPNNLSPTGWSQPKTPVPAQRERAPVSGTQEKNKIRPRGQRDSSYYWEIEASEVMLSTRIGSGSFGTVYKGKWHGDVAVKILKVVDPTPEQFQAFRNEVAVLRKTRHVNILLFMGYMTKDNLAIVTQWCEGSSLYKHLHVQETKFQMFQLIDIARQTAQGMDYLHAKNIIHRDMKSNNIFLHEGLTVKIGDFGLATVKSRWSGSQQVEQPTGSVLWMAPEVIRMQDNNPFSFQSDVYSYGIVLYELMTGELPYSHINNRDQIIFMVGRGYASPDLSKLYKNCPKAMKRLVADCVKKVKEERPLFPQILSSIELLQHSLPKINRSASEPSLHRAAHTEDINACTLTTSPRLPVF
RAF kinases (Homo sapiens, UniProt P15056), sequence (P15056 whole entry): as the sequence (P15056 whole entry V600E) above, with E600V counted along it

Structure (SMILES) | Kd (RAF kinases [1]) [µM] | Kd (RAF kinases [2]) [µM] | IC50 [3] [µM] | Kd (RAF kinases [4]) [µM] | EC50 (A375 cells) [µM] | Kd (RAF kinases [5]) [µM] | Kd (RAF kinases [6]) [µM]
COc1cc2ncnc(Oc3cccc(NC(=O)Nc4cc(C(C)(C)C)nn4-c4cccc(Cl)c4)c3)c2cc1OC [Ex 363, 1-(3-tert-butyl-1-(3-chlorophenyl)-1H-pyrazol-5-yl)-3-(3-(6,7-dimethoxyquinazolin-4-yloxy)phenyl)urea] | > 1 | < 0.25 | < 0.25 | 0.25 to 0.5 | – | – | –
COc1cc2ncnc(Oc3ccc(Cl)c(NC(=O)Nc4cc(C(C)(C)C)on4)c3)c2cc1OC [Ex 299, 1-(5-tert-butylisoxazol-3-yl)-3-(2-chloro-5-(6,7-dimethoxyquinazolin-4-yloxy)phenyl)urea] | < 0.25 | < 0.25 | < 0.25 | 0.25 to 0.5 | – | – | –
COc1cc2ncnc(Oc3cccc(NC(=O)Nc4cc(C(C)(C)F)no4)c3)c2cc1OCCCS(C)(=O)=O [Ex 42, 1-(3-(2-fluoropropan-2-yl)isoxazol-5-yl)-3-(3-(7-methoxy-6-(3-(methylsulfonyl)propoxy)quinazolin-4-yloxy)phenyl)urea] | – | – | 0.25 to 0.5 | < 0.25 | 0.5 to 1 | < 0.25 | < 0.25
COc1cc2ncnc(Oc3cccc(NC(=O)Nc4cc(C(C)(C)C#N)no4)c3)c2cc1OC [Ex 125, 1-(3-(2-cyanopropan-2-yl)isoxazol-5-yl)-3-(3-(6,7-dimethoxyquinazolin-4-yloxy)phenyl)urea] | – | – | 0.25 to 0.5 | 0.25 to 0.5 | > 1 | 0.25 to 0.5 | < 0.25
COCCOc1cc2ncnc(Oc3cccc(NC(=O)Nc4ccc(C(F)(F)F)c(F)c4)c3)c2cc1OC [Ex 222, 1-(3-fluoro-4-(trifluoromethyl)phenyl)-3-(3-(6-methoxy-7-(2-methoxyethoxy)quinazolin-4-yloxy)phenyl)urea] | – | – | > 1 | 0.5 to 1 | > 1 | 0.25 to 0.5 | 0.25 to 0.5
CCOc1cc2c(Oc3cccc(NC(=O)Nc4cc(C(F)(F)F)nn4-c4ccccc4)c3)ncnc2cc1OC [Ex 391, 1-(3-(6-ethoxy-7-methoxyquinazolin-4-yloxy)phenyl)-3-(1-phenyl-3-(trifluoromethyl)-1H-pyrazol-5-yl)urea] | – | – | < 0.25 | 0.25 to 0.5 | < 0.25 | 0.25 to 0.5 | < 0.25
CCOc1cc2ncnc(Sc3cccc(NC(=O)Nc4cc(C(C)(C)C)on4)c3)c2cc1OC [Ex 50, 1-(5-tert-butylisoxazol-3-yl)-3-[3-(7-ethoxy-6-methoxyquinazolin-4-ylthio)phenyl]urea] | – | – | 0.25 to 0.5 | 0.5 to 1 | > 1 | 0.25 to 0.5 | 0.25 to 0.5
COc1cc(NC(=O)Nc2cccc(Oc3ncnc4cc(OC)c(OC)cc34)c2)cc(C(F)(F)F)c1 [Ex 116, 1-(3-(6,7-dimethoxyquinazolin-4-yloxy)phenyl)-3-(3-methoxy-5-(trifluoromethyl)phenyl)urea] | – | – | > 1 | 0.5 to 1 | > 1 | 0.25 to 0.5 | 0.25 to 0.5
COc1cc2ncnc(Oc3cccc(NC(=O)Nc4ccc(C(F)(F)F)c(F)c4)c3)c2cc1OC [Ex 150, 1-(3-(6,7-dimethoxyquinazolin-4-yloxy)phenyl)-3-(3-fluoro-4-(trifluoromethyl)phenyl)urea] | – | – | > 1 | 0.5 to 1 | > 1 | 0.5 to 1 | 0.25 to 0.5
CCOC(C)(C)c1cc(NC(=O)Nc2cccc(Sc3ncnc4cc(OC)c(OC)cc34)c2)n(-c2ccccc2)n1 [Ex 197, 1-[3-(6,7-dimethoxyquinazolin-4-ylthio)phenyl]-3-[3-(2-ethoxypropan-2-yl)-1-phenyl-1H-pyrazol-5-yl]urea] | – | – | 0.25 to 0.5 | > 1 | > 1 | > 1 | 0.25 to 0.5
COCCOc1cc2ncnc(Oc3cccc(NC(=O)Nc4cc(C(C)(C)COC)on4)c3)c2cc1OC [Ex 217, 1-(5-(1-methoxy-2-methylpropan-2-yl)isoxazol-3-yl)-3-(3-(6-methoxy-7-(2-methoxyethoxy)quinazolin-4-yloxy)phenyl)urea] | – | – | 0.25 to 0.5 | 0.25 to 0.5 | > 1 | 0.25 to 0.5 | < 0.25
